# Results reported in patent publication US8507219B2, “Method of treating inflammation with statins” (MUSC Foundation for Research Development, priority 1997, dated 2013).
# Entries after “also recorded” stand apart in the source; their conditions may differ.
# How the values were obtained:
# [1] = test system: IL-1β production in rat primary microglia; test: LPS-induced IL-1β production (ELISA) in rat primary microglia; assay type: cell-based
# Method: (§1) Determination of TNF-α and IL-1β in culture supernatants Cells were stimulated with LPS in serum-free media for 24 h in the presence or absence of forskolin or rolipram, and concentrations of TNF-α and IL-1β were measured in culture supernatants by using high-sensitivity enzyme-linked immunosorbent assay (R&D Systems, USA) according to the manufacturer's instructions.
# [2] = test system: control human skin fibroblasts; test: β-oxidation of lignoceric acid in control human skin fibroblasts; assay type: cell-based; conditions: 72 h
# [3] = test system: TNF-α production in rat primary microglia; test: LPS-induced TNF-α production (ELISA) in rat primary microglia; assay type: cell-based
# Method: as §1
# [4] = test system: cultured skin fibroblasts of X-ALD; test: VLCFA ratios (C26:0/C22:0, C24:0/C22:0) in X-ALD skin fibroblasts; assay type: cell-based, human; conditions: about 15 days of treatment
# iNOS = test: Expression of iNOS protein (immunoblot) and mRNA (Northern) in rat primary astrocytes; assay type: cell-based; conditions: 10 μM forskolin or 0.2 μM H-89 15 min before cytokines / LPS
# Method: (§2) Immunoblot analysis for iNOS Following 24 h incubation in the presence or absence of stimuli by different cytokines or LPS, macrophages were scraped off, washed with Hank's buffer, and homogenized in 50 mM Tris-HCl (pH 7.4) containing protease inhibitors (1 nM PMSF, 5 μg/ml aprotinin, 5 μg/ml pepstatin A, and 5 μg/ml leupeptin). After electrophoresis the proteins were transferred onto a nitrocellulose membrane, and the iNOS band was visualized by immunoblotting with antibodies against mouse macrophage iNOS and [^125I]-labeled protein A (Singh et al., 1988).
# RNA isolation, Northern blot analysis, and reverse-transcriptase coupled polymerase chain reaction (RT-PCR) Stimulated peritoneal macrophages were taken out from culture dishes directly by adding Ultraspec-II RNA reagent (Biotecx Laboratories Inc.) and total RNA was isolated according to the manufacturer's protocol. For northern blot analyses, 20 μg of total RNA was electrophoresed on 1.2% denaturing formaldehyde-agarose gels, electrotransferred to Hybond-Nylon Membrane (Amersham) and hybridized at 68° C. with ^32P-labeled cDNA probe using Express Hyb hybridization solution (Clontech) as described by the manufacturer. […]; After hybridization filters were washed two to three times in solution I (2×SSC, 0.05% SDS) for 1 h at room temperature followed by solution II (0.1×SSC, 0.1% SDS) at 50° C. for another hour. The membranes were then dried and exposed to X-ray film (Kodak). The same filters were stripped and rehybridized with probes for GAPDH. The relative mRNA content for iNOS was measured after scanning the bands with a Biorad (Model GS-670) imaging densitometer.
# as §2, with “of” for “of stimuli by”, “stimuli, cells” for “cytokines or LPS, macrophages”, “inhibitors.” for “inhibitors (1 nM PMSF, 5 μg/ml aprotinin, 5 μg/ml pepstatin A, and 5 μg/ml leupeptin).”, “A.” for “A (Singh et al., 1988).”
# RNA isolation and Northern blot analysis Cells were taken out from culture dishes directly by adding Ultraspec-II RNA reagent (Biotecx Laboratories Inc.) and total RNA was isolated according to the manufacturer's protocol. For Northern blot analyses, 20 μg of total RNA was electrophoresed on 1.2% denaturing formaldehyde-agarose gels, electrotransferred to Hybond-Nylon Membrane (Amersham) and hybridized at 68° C. with ^32P-labeled cDNA probe using Express Hyb hybridization solution (Clontech) as described by the manufacturer. […]; After hybridization filters were washed two or three times in solution I (2×SSC, 0.05% SDS) for one hour at room temperature followed by solution II (0.1×SSC, 0.1% SDS) at 50° C. for another hour. The membranes were then dried and exposed with X-ray films (Kodak). The same filters were stripped and rehybridized with probes for GAPDH. The relative mRNA content for iNOS was measured after scanning the bands with a Biorad (Model GS-670) imaging densitometer.
# as §2, with “After a” for “Following”, “of” for “of stimuli by”, “stimuli, cells” for “cytokines or LPS, macrophages”, “mM” for “nM”, “A.” for “A (Singh et al., 1988).”
# RNA isolation and Northern blot analysis Cells were taken out from culture dishes directly by adding Ultraspec-II RNA reagent (Biotecx Laboratories Inc., Houston, Tex.), and total RNA was isolated according to the manufacturer's protocol. […]
# [5] = test system: TNF-α production in rat resident macrophages; test: LPS-/IFN-γ-induced TNF-α production (ELISA) in rat macrophages; assay type: cell-based
# Method: Resident macrophages cultured in serum-free RPMI 1640 medium received 20 mM NAC or 100 μM PDTC 2 h before the addition of stimuli. When stimuli were used separately their concentrations were: LPS, 1.0 μg/ml; IFN-γ, 200 U/ml, and when they were used together, their concentrations were: LPS, 0.2 μg/ml; IFN-γ, 50 U/ml. Supernatants were collected 24 h after the addition of stimuli to measure TNF-α concentration using ELISA as described.
# [6] = test system: ceramide production in rat primary astrocytes; test: Degradation of sphingomyelin to ceramide (DAG kinase assay, HPTLC) in rat primary astrocytes; assay type: cell-based; conditions: 10 mM NAC or 100 μM PDTC 1 h before TNF-α or IL-1β (50 ng/ml), diamide 0.5 mM or aminotriazole 5 mM
# Method: Lipid extraction Approximately 1.0×10^6 cells were exposed to different cytokines in the presence or absence of antioxidants for different periods and lipids were extracted according to the methods described by Welsh (1996).
# Quantification of sphingomyelin by HPTLC and densitometry Sphingomyelin was separated from total lipid extracts by HPTLC (LPK-plates from Whatman Labsales, USA) as described (Ganser et al., 1988) for phospholipids with the modification, that the plate was overrun for 30 min during its development and was dried overnight in vacuum desicator. Sphingomyelin was quantitated by densitometric scanning using Imaging Densitometer (Model GS-670; Bio-Rad, USA) and software provided with the instrument by the manufacturer.
# Quantification of ceramide levels by diacylglycerol kinase assay Ceramide content was quantified essentially according to Priess et al. using diacylglycerol (DAG) kinase and [γ-^32P]ATP (Priess et al., 1986). Briefly, dried lipids were solubilized in 20 μl of an octyl β-D-glucoside/cardiolipin solution (7.5% octyl β-D-glucoside, 5 mM cardiolipin in 1 mM DTPA) by sonication in a sonicator bath. […] The labeled ceramide 1-phosphate was resolved with a solvent system consisting of methyl acetate: n-propanol:chloroform:methanol:0.25% KCl in water:acetic-acid (100:100:100:40:36:2). A standard sample of ceramide was phosphorylated under identical conditions and developed in parallel. […] Quantification of ceramide 1-phosphate was carried out by autoradiography and densitometric scanning using Imaging Densitometer (Model GS-670; Bio-Rad, USA). Values are expressed either as arbitrary units (absorbance) or as percent change.
# Lipid Extraction Approximately 1.0×10^6 cells were exposed to different cytokines in the presence or absence of antioxidants for different periods, and lipids were extracted according to the methods described by Welsh (1996).
# Quantification of Sphingomyelin by High Performance TLC and Densitometry Sphingomyelin was separated from total lipid extracts by high performance TLC (LHPK plates from Whatman) as described by Ganser et al. (1988) for phospholipids with the following modification: the plate was overrun for 30 min during its development and was dried overnight in vacuum desiccator. Sphingomyelin was quantitated by densitometric scanning using Imaging Densitometer (model GS-670; Bio-Rad), and software was provided with the instrument by the manufacturer.
# Quantification of Ceramide Levels by Diacylglycerol Kinase Assay Ceramide content was quantified essentially according to Priess et al. (1986) using diacylglycerol (DAG) kinase and [γ-^32P]ATP. Briefly, dried lipids were solubilized in 20 μl of an octyl β-D-glucoside/cardiolipin solution (7.5% octyl β-D-glucoside, 5 mM cardiolipin in 1 mM DTPA) by sonication in a sonicator bath. […] The labeled ceramide-1-phosphate was resolved with a solvent system consisting of methyl acetate:n-propyl alcohol:chloroform:methanol, 0.25% KCl in water:acetic acid (100:100:100:40:36:2). A standard sample of ceramide was phosphorylated under identical conditions and developed in parallel. […] Quantification of ceramide-1-phosphate was carried out by autoradiography and densitometric scanning using Imaging Densitometer (model GS-670; Bio-Rad). Values are expressed either as arbitrary units (absorbance) or as percent change.
# [7] = test system: NOS activity in rat resident macrophages; test: NOS activity (L-citrulline from L-arginine) in homogenates of treated rat resident macrophages; assay type: cell-based; conditions: LPS 1.0 μg/ml, 24 h
# Method: NOS activity was measured directly by production of L-[2,3,4,5-^3H]citrulline from L-[2,3,4,5-^3H] arginine (Feinstein et al., 1994a). […] Assays were carried out for 30 to 40 min and the production of L-[2,3,4,5-^3H] citrulline was linear. The reactions were stopped by addition of 800 μl of ice-cold 20 mM HEPES (pH 5.5) followed by addition of 2 ml of Dowex-50W equilibrated in the same buffer. The samples were then centrifuged and the concentration of L-[^3H]citrulline was determined in the supernatant by liquid scintillation counting.
structure (smiles),measurement,setting,value
O=S(=O)(NCCNC/C=C/c1ccc(Br)cc1)c1cccc2cnccc12 [H-89],LPS-induced production of IL-1β,[1],stimulated the production of these proinflammatory cytokines in rat primary microglia
same,Lignoceric acid β-oxidation,"[2]; forskolin 4 μM, 1,9 dideoxy forskolin 4 μM, 8-Br-cAMP 50 μM, H-89 1 μM, myristoylated PKI 0.2 μM, Control 565.2 ± 48.3",405.6 ± 44.1 pmol/h/mg protein
same,LPS-induced production of TNF-α,[3],stimulated the production of these proinflammatory cytokines in rat primary microglia
same,ratios of C26:0/C22:0 and C24:0/C22:0 / level of VLCFA,[4],blocked the observed effect of forskolin on the level of VLCFA
same,cytokine-induced expression of iNOS,iNOS,stimulated the cytokine-induced expression of iNOS
CC[C@H](C)C(=O)O[C@H]1CCC=C2C=C[C@H](C)[C@H](CC[C@@H]3C[C@@H](O)CC(=O)O3)[C@H]21 [Mevastatin],Lignoceric acid β-oxidation,"[2]; Lovastatin 5 μM, Mevastatin 5 μM, NaPA 5 mM, Control 570.2 ± 52.3",889.6 ± 78.4 pmol/h/mg protein
"S=C(S)N1CCCC1 [PDTC, pyrrolidine dithiocarbamate]",Inhibition (%),"[5]; LPS 0.2 μg/ml + IFN-γ 50 U/ml, 20 mM NAC or 100 μM PDTC 2 h before",96%
same,TNF-α,"[5]; LPS 0.2 μg/ml + IFN-γ 50 U/ml, 20 mM NAC or 100 μM PDTC 2 h before, 24 h",1.4 ± 0.3 ng/24 h/mg protein
same,Inhibition (%),"[5]; LPS 1.0 μg/ml, 20 mM NAC or 100 μM PDTC 2 h before",95%
same,TNF-α,"[5]; LPS 1.0 μg/ml, 20 mM NAC or 100 μM PDTC 2 h before, 24 h",0.9 ± 0.1 ng/24 h/mg protein
same,TNF-α,"[5]; antioxidant alone (20 mM NAC or 100 μM PDTC), no stimulus",0.7 ± 0.2 ng/24 h/mg protein
same,degradation of sphingomyelin to ceramide / ceramide production,[6],potentially blocked the decrease in sphingomyelin as well as the increase in ceramide; also recorded: also inhibited cytokine-mediated degradation of SM to ceramide
same,"LPS-induced NOS activity, L-citrulline formation",[7],inhibited LPS-induced NOS activity
